Format in all cases: cell-based
One data set has as its system IL-6. The data set can be described thus: In vitro EpiDerm skin model, PMA irritant: IL-6 release. The conditions noted are these: for IL-6 + PMA: + PMA irritant; for IL-6 no PMA: no PMA irritant. The procedure: (§1) The purpose of the in vitro testing was to evaluate the potential anti-inflammatory action of compositions according to the present invention.
(§2) In vitro tests were carried out as follows: • take an irritant treated EpiDerm™ skin model. Initial inflammation was measured by the cytokine release after exposure to a single dose of irritant. • apply test compositions to the irritant treated EpiDerm skin • anti-inflammatory potential was then measured by reduction in cytokine release • specifically, the levels of cytokines TNF-α, IL-6 and IL-8 were measured to give a picture of the performance of the product across the lifecycle of an acne event or related skin inflammation.
(§3) Experimental design follows standard procedures, using phorbol-12-myristate 13-acetate (PMA) as irritant. Test samples were applied by pipette as solutions to the Epiderm tissue, and each sample was tested in triplicate against positive and negative controls. Anti-inflammatory activity measured by relative decrease in cytokine release in irritant-treated tissue compared to non-irritant treated tissue.
(§4) The separate active components of an example according to the invention were tested, along with some combinations in pairs and one combination lacking the salicylic acid. Where these actives were applied, they were in the same w/w ratio as in the example composition, example 9.

For the next data set, the system named is EpiDerm skin model. The data set can be described thus: MTT viability, EpiDerm skin model.
The next data set has as its system IL-8. The data set can be described thus: In vitro EpiDerm skin model, PMA irritant: IL-8 release. The note with it: no PMA irritant (first IL-8 column, c6). The procedure: as §1, §2, §3, §4
The test system of another data set is TNF-α. Description: In vitro EpiDerm skin model, PMA irritant: TNF-α release. The conditions noted are these: for TNFα + PMA / TNFα no PMA: EpiDerm skin model; for TNFα + PMA: + PMA irritant; for TNFα no PMA: no PMA irritant. The procedure:
as §1, §2, §3, §4

For `CC(O)C(=O)[O-].[Na+]` (stereo not drawn) [Sodium Lactate (SLA)], in the data set on IL-6, the “IL-6 + PMA” value was 22.6 pg/mL and the “IL-6 no PMA” value was found to be 4.909 pg/mL. In the data set on EpiDerm skin model, the “MTT < 95%” value came out at 99.1%. Also, in the data set on IL-8, the “IL-8 no PMA” value is 104.549 pg/mL. Moreover, in the data set with TNF-α, the “TNFα + PMA” value amounted to 92.434 pg/mL and the “TNFα no PMA” value is 0.882 pg/mL.

As for `CC1(C)[C@@H](O[C@H]2O[C@H](C(=O)[O-])[C@@H](O)[C@H](O)[C@H]2O[C@@H]2O[C@H](C(=O)[O-])[C@@H](O)[C@H](O)[C@H]2O)CC[C@]2(C)[C@H]3C(=O)C=C4[C@@H]5C[C@@](C)(C(=O)O)CC[C@]5(C)CC[C@@]4(C)[C@]3(C)CC[C@@H]12.[K+].[K+]` [Dipotassium glycyrrhizinate (GLYR)], in the data set on IL-6, the “IL-6 + PMA” value amounted to 7.591 pg/mL and the “IL-6 no PMA” value was -1.781 pg/mL. Further, the “MTT < 95%” value in the data set with EpiDerm skin model is recorded as 93.7%. Moreover, in the data set on IL-8, the “IL-8 no PMA” value turned out to be 44.413 pg/mL. Moreover, in the data set with TNF-α, the “TNFα + PMA” value worked out at 78.48 pg/mL and the “TNFα no PMA” value is -0.636 pg/mL.

In the case of `O=C(O)c1ccccc1O` [salicylic acid, reference compound], in the data set on TNF-α (irritant (PMA) treated EpiDerm skin model, cytokines TNF-α, IL-6 and IL-8 taken together), the “anti-inflammatory action (reduction in cytokine release)” value is on record as “acts inter alia as an anti-inflammatory”.

Turning to `C[C@]12CCC(=O)C=C1CC[C@@H]1[C@@H]2[C@@H](O)C[C@@]2(C)[C@H]1CC[C@]2(O)C(=O)CO` [Positive control (hydrocortisone)], the “IL-6 + PMA” value in the data set with IL-6 is -4.358 pg/mL. Also, the “TNFα + PMA” value in the data set with TNF-α is -0.378 pg/mL.

As for `NC(=O)c1cccnc1` [Nicotinamide (NA)], in the data set with IL-6, the “IL-6 + PMA” value is -2.712 pg/mL and the “IL-6 no PMA” value is -4.294 pg/mL. The “MTT < 95%” value in the data set on EpiDerm skin model is 96.8%. The “IL-8 no PMA” value in the data set with IL-8 came to 47.54 pg/mL. In addition, in the data set on TNF-α, the “TNFα + PMA” value came out at 40.202 pg/mL and the “TNFα no PMA” value was -0.171 pg/mL.

As for `O=C(O)c1ccccc1O` [Salicylic acid (SCA)], in the data set with IL-6, the “IL-6 + PMA” value was 6.159 pg/mL and the “IL-6 no PMA” value is -1.445 pg/mL. The “MTT < 95%” value in the data set with EpiDerm skin model amounted to 103.2%. Besides, the “IL-8 no PMA” value in the data set with IL-8 was found to be 72.757 pg/mL. Also, in the data set on TNF-α, the “TNFα + PMA” value is 12.265 pg/mL and the “TNFα no PMA” value is -0.068 pg/mL.
